Assay results reported in PMC4574934, “Gliadin Induces Neutrophil Migration via Engagement of the Formyl Peptide Receptor, FPR1” (PLoS ONE, 2015).

Tested on: human neutrophils
Assay: EZ-TAXIScan chemotaxis assay, human neutrophils
Assay type: cell-based
Design: key to Chemotactic response: moderate (++) response; stronger chemotactic response (+++)
Settings: for Chemotaxis Index (CI), Control / Speed, Control: no cyclosporine H; for Chemotactic response / Chemotaxis Index (CI) / Speed: Table 2, peptide 20 ng/mL, 1-3 experiments
Method: Heparinized venous blood was centrifuged over a Ficoll-Paque PLUS gradient (d = 1.077 g/ml, GE Healthcare, Boston, MA). The sedimented granulocyte/erythrocyte fraction was collected, and erythrocytes were lysed with cold lysis buffer (155 mM NH4Cl, 10 mM KHCO3, 0.1 mM EDTA). Cells were resuspended in HBSS without Ca^2+/Mg^2+ (Thermo Scientific, Tewksbury, MA), and viability and purity were assessed as described above. Viability of neutrophils was >95%, purity was 98–99%.
Neutrophils were counted and applied in the EZ-TAXIScan chemotaxis assay. […] The EZ-TAXIScan chamber (Effector Cell Institute, Tokyo) was assembled as described by the manufacturer. Cell migration was recorded every 15 seconds for 30 minutes at 37°C in a humidified environmental chamber. Coverslips and chips used in the chamber were coated with 1% BSA at room temperature for 1 hour. All glass coverslips were ultrasonicated and washed before use. Cell migration analysis was conducted with MATLAB software. Cell tracks were subsequently used to compute the chemotaxis index (CI) and speed for each tracked cell at each time step, as well as the average CI and average speed for each experiment.

[1] = Table 1, neutrophils pretreated with cyclosporine H (FPR1 inhibitor), 5 experiments
[2] = Table 3, in the presence of cyclosporine H (FPR1 inhibitor), 2-3 experiments
[3] = human neutrophils pretreated with cyclosporine H

`CCCCC/C=C\C[C@@H](O)/C=C/C=C/C=C\[C@@H](O)CCCC(=O)O` [LTB4, leukotriene B4, reference compound] was tested, and the “Chemotaxis Index (CI), Cyclosporine H” value [1] was 0.49 ± 0.01, the “Speed, Cyclosporine H” value [1] was 9.23 ± 0.07 μm/minute and the “Chemotaxis Index (CI), Control” value (Table 1, 5 experiments) was 0.51 ± 0.01. For the same compound, the “Speed, Control” value (Table 1, 5 experiments) was 9.68 ± 0.30 μm/minute.

“GSVQPQQLPQFEEIRNLALQ [alpha-gliadin synthetic library peptide]” was tested, and the Chemotactic response was “+++”, the “Chemotaxis Index (CI)” value was 0.34 ± 0.01 and the Speed was 8.10 ± 0.18 μm/minute. For the same compound, the “Chemotaxis Index (CI), Cyclosporine H” value [2] was 0.02 ± 0.01, the “Speed, Cyclosporine H” value [2] was 0.30 ± 0.06 μm/minute and the “Chemotaxis Index (CI), Control” value (Table 3, 2-3 experiments) was 0.33 ± 0.07. The “Speed, Control” value (Table 3, 2-3 experiments) was 7.90 ± 0.87 μm/minute.

With “LQELCCQHLWQIPEQSQCQA [alpha-gliadin synthetic library peptide]” the Chemotactic response was “++”, the “Chemotaxis Index (CI)” value was 0.18 and the Speed was 8.85 μm/minute.

For “MVRVPVPQLQPQNPSQQHPQ [alpha-gliadin synthetic library peptide]”, the Chemotactic response was “++”, the “Chemotaxis Index (CI)” value was 0.30 ± 0.01 and the Speed was 6.68 ± 1.92 μm/minute. The “Chemotaxis Index (CI), Cyclosporine H” value [2] was 0.03 ± 0.01, the “Speed, Cyclosporine H” value [2] was 0.45 ± 0.11 μm/minute and the “Chemotaxis Index (CI), Control” value (Table 3, 2-3 experiments) was 0.28 ± 0.03. The “Speed, Control” value (Table 3, 2-3 experiments) was 7.50 ± 1.95 μm/minute.

For “PFPQPQLPYLQPQPFRPQQP [alpha-gliadin synthetic library peptide]”, the Chemotactic response was “++”, the “Chemotaxis Index (CI)” value was 0.21 ± 0.01 and the Speed was 9.94 ± 0.09 μm/minute.

With “PPYCTIVPFGIFGTNYR [alpha-gliadin synthetic library peptide]” the Chemotactic response was “++”, the “Chemotaxis Index (CI)” value was 0.29 ± 0.01 and the Speed was 8.55 ± 0.11 μm/minute.

For “PQNPSQQHPQEQVPLVQQQQ [alpha-gliadin synthetic library peptide]”, the Chemotactic response was “++”, the “Chemotaxis Index (CI)” value was 0.23 and the Speed was 6.73 μm/minute.

With “PQQPISQQQQQQQQQQQQQQ [alpha-gliadin synthetic library peptide]” the Chemotactic response was “++”, the “Chemotaxis Index (CI)” value was 0.29 and the Speed was 7.62 μm/minute.

With “QIPEQSQCQAIHNVVHAIIL [alpha-gliadin synthetic library peptide]” the Chemotactic response was “+++”, the “Chemotaxis Index (CI)” value was 0.33 and the Speed was 8.64 μm/minute.

“QQHNIAHGRSQVLQQSTYQL [alpha-gliadin synthetic library peptide]” was tested, and the Chemotactic response was “+++”, the “Chemotaxis Index (CI)” value was 0.28 ± 0.01 and the Speed was 10.17 ± 1.45 μm/minute. The “Chemotaxis Index (CI), Cyclosporine H” value [2] was 0.05 ± 0.02, the “Speed, Cyclosporine H” value [2] was 0.48 ± 0.19 μm/minute and the “Chemotaxis Index (CI), Control” value (Table 3, 2-3 experiments) was 0.27 ± 0.02. The “Speed, Control” value (Table 3, 2-3 experiments) was 6.65 ± 0.33 μm/minute.

“QQYPLGQGSFRPSQQNPLAQ [alpha-gliadin synthetic library peptide]” was tested, and the Chemotactic response was “++”, the “Chemotaxis Index (CI)” value was 0.21 and the Speed was 8.08 μm/minute.

“QVLQQSTYQLLQELCCQHLW [alpha-gliadin synthetic library peptide]” was tested, and the Chemotactic response was “++”, the “Chemotaxis Index (CI)” value was 0.33 and the Speed was 7.49 μm/minute.

For “SSQVSFQQPLQQYPLGQGSF [alpha-gliadin synthetic library peptide]”, the Chemotactic response was “++”, the “Chemotaxis Index (CI)” value was 0.19 and the Speed was 7.65 μm/minute.

With cyclosporine H [reference compound] the “effect on PT-gliadin-induced chemotaxis” value [3] was “completely abrogated”, the “effect on fMLP-mediated neutrophil chemotaxis” value [3] was “abolished” and the “effect on leukotriene B4 (LTB4)-mediated chemotaxis” value [3] was “remained unaffected”.
